# Experimental data taken from patent publication US20230226092A1, “CANCER […] ON G[…]” (NuCana plc, priority 2015, published 2023).
# Tested on: advance progressive cancers that are refractory to, or have relapsed on, all conventional therapies
# Assay: ProGem1 dose escalation clinical study: clinical response (RECIST 1.1, tumour markers)
# Type: in vivo, human
# Design: CA125 level / CA19.9 / CEA / CA125 / Tumour volume / CA 15.3 tumour marker / inhibin B: unit not given here
# Description: The following data were generated in clinical studies of NUC-1031 in human patients with advance progressive cancers that are refractory to, or have relapsed on, all conventional therapies that have been used to date. The results clearly illustrate the ability of NUC-1031 to successfully treat refractory cancers.
# Although the primary objectives of the dose escalation part of the study were to determine the Recommended Phase II Dose (RP2D) and safety profile, secondary objectives included determining the PK profile, however effective treatment of patients with a range of refractory cancers has also been observed as part of this study.
# A total of 68 patients have been entered into this dose escalation study, of which 49 were evaluable for clinical response in that they have received at least 2 Cycles of NUC-1031 and were therefore eligible for a RECIST 1.1 assessment.
# NUC-1031 was administered as a 5 to 30 minute intravenous slow bolus injection. • Schedule A: NUC-1031 was administered on days 1, 8, 15 of a 4 weekly Cycle. • Schedule B: NUC-1031 was administered on days 1, 5, 8, 12, 15, 19, of a 4 weekly Cycle.
# Evaluable patients were patients that received ≥ 2 Cycles of NUC-1031 and were therefore eligible for a RECIST 1.1 assessment at the end of Cycle 2. Where the disease response duration, measured in months, is followed by a “+” this indicates ongoing disease control as of the latest cut-off date.
# [1] = Patient 004, breast cancer, 500 mg/m^2 weekly
# [2] = Patient 005, ovarian cancer, 500 mg/m^2 weekly
# [3] = Patient 006, cholangiocarcinoma, 375 mg/m^2 twice weekly, then 500 mg/m^2 weekly
# [4] = Patient 008, cancer of unknown primary, 375 mg/m^2 twice weekly
# [5] = Patient 010, endometrial cancer
# [6] = Patient 015, cancer of unknown primary, ongoing
# [7] = Patient 021, fallopian tube cancer
# [8] = Patient 025, mesothelioma, 725 mg/m^2 weekly
# [9] = Patient 026, colorectal cancer, 725 mg/m^2 weekly
# [10] = Patient 029, breast cancer, 725 mg/m^2 weekly
# [11] = Patient 030, ovarian cancer, 725 mg/m^2 weekly
# [12] = Patient 032, oesophageal cancer, 750 mg/m^2 weekly
# [13] = Patient 033, cholangiocarcinoma, 750 mg/m^2 weekly
substance,measurement,setting,value
gemcitabine-[phenyl-benzoxy-L-alaninyl)]-phosphate [NUC-1031],Disease response duration,[1],12 months
same,Response to RECIST,[1],Stable Disease
same,Remained stable with no further treatment,"Patient 004, breast cancer, after Cycle 7",5 months
same,Disease response duration,[2],15 months
same,Response to RECIST,[2],Stable Disease
same,Time to relapse after stopping treatment,"Patient 005, ovarian cancer, after 12 months of treatment",3 months
same,CA125 level,"Patient 005, ovarian cancer, end of Cycle 6, from 208 at start of study",140
same,CT scan finding,"Patient 006, cholangiocarcinoma",reduction in metastatic lung lesion and lymph node from baseline
same,Disease response duration,[3],3 months
same,Response to RECIST,[3],Stable Disease
same,CA19.9,"Patient 006, cholangiocarcinoma, after two doses, from 125,002","59,285"
same,Disease response duration,"Patient 007, colorectal cancer",3 months
same,Response to RECIST,"Patient 007, colorectal cancer, 375 mg/m^2 twice weekly, then 500 mg/m^2 weekly",Stable Disease
same,CEA,"Patient 007, colorectal cancer, from 361",286
same,CA19.9,"Patient 007, colorectal cancer, from 3,151","2,957"
same,Disease response duration,[4],3 months
same,Response to RECIST,[4],Stable Disease
same,Symptomatic benefit,"Patient 008, cancer of unknown primary, Cycle 1",symptomatic relief on treatment and a general improvement in mood and wellbeing
same,Disease response duration,[5],9 months
same,Stable Disease maintained after stopping NUC-1031,[5],3 months
same,Response to RECIST,"Patient 010, endometrial cancer, 750 mg/m^2 weekly, then 500 mg/m^2",Stable Disease
same,CA125,"Patient 010, endometrial cancer, from 727",488
same,Disease response duration,"Patient 011, uterine carcinosarcoma",4 months
same,Reduction in tumour volume,"Patient 011, uterine carcinosarcoma, 375 mg/m^2 twice weekly",26%
same,Response to RECIST,"Patient 011, uterine carcinosarcoma, 375 mg/m^2 twice weekly, then 625 mg/m^2 weekly",Stable Disease
same,Disease response duration,"Patient 012, cholangiocarcinoma",8 months
same,Response to RECIST,"Patient 012, cholangiocarcinoma, 375 mg/m^2 twice weekly, then 625 mg/m^2 weekly",Stable Disease
same,Disease response duration,"Patient 013, cervical cancer",9 months
same,PFS,"Patient 013, cervical cancer",11 months
same,Response to RECIST,"Patient 013, cervical cancer, 750, then 625, then 500 mg/m^2 weekly",Partial Response
same,Symptomatic benefit,"Patient 013, cervical cancer, lower pelvic pain","relief of this pain on treatment, with significant reduction of opioid usage"
same,Response to RECIST,"Patient 014, mesothelioma, 750, then 625 mg/m^2 weekly",Progressive Disease
same,Response to RECIST,"Patient 015, cancer of unknown primary, 750, then 625, then 500 mg/m^2 weekly",Partial Response
same,Reduction in tumour size,"Patient 015, cancer of unknown primary, CT scan 9th January 2015",~58%
same,Symptomatic benefit,"Patient 015, cancer of unknown primary, following Cycle 1",the oedema and ascites had gone
same,Disease response duration,[6],≥ 20 months
same,PFS,[6],≥ 24 months
same,Disease response duration,"Patient 017, lung cancer",3 months
same,PFS,"Patient 017, lung cancer",10 months
same,Symptomatic benefit,"Patient 017, lung cancer",improvement in hoarse voice and dysphagia
same,Response to RECIST,"Patient 017, lung cancer (adenocarcinoma), 750, then 625 mg/m^2 weekly",Partial Response
same,Response to RECIST,"Patient 018, lung cancer (squamous cell), 625 mg/m^2 weekly",Stable Disease
same,Disease response duration,"Patient 018, lung cancer, 625 mg/m^2 weekly",4 months
same,Response duration according to GCIG criteria,[7],9 months
same,Response duration according to RECIST,[7],3 months
same,Symptomatic benefit,[7],significant reduction in abdominal ascites
same,Best overall response,"Patient 021, fallopian tube cancer, 625 mg/m^2 weekly",Partial Response
same,CA125 reduction from baseline,"Patient 021, fallopian tube cancer, end of Cycle 6",91%
same,CA125,"Patient 021, fallopian tube cancer, end of Cycle 6, baseline 372",35
same,Response to RECIST,"Patient 024, cancer of unknown primary, 675 mg/m^2 weekly",Progressive Disease
same,Disease response duration,[8],4 months
same,Response to RECIST,[8],Stable Disease
same,Symptomatic benefit,"Patient 026, colorectal cancer","Significant improvement in pain, with dramatic reduction in use of opioid analgesia"
same,Disease response duration,[9],4 months
same,Response to RECIST,[9],Stable Disease
same,Disease response duration,"Patient 027, ovarian cancer",8 months
same,Reduction in tumour volume,"Patient 027, ovarian cancer",23%
same,Response to RECIST,"Patient 027, ovarian cancer, 725, then 675, then 625 mg/m^2 weekly",Stable Disease
same,CA125,"Patient 027, ovarian cancer, end of Cycle 6, from 188 at baseline",99
same,Disease response duration,[10],4 months
same,Response to RECIST,[10],Stable Disease
same,Disease response duration,[11],3 months
same,Response to RECIST,[11],Stable Disease
same,Response (end of Cycle 2 CT scan),"Patient 031, cholangiocarcinoma, 750 mg/m^2 weekly",Progressive Disease
same,Disease response duration,[12],2 months
same,Response to RECIST,[12],Stable Disease
same,Disease response duration,[13],3 months
same,Response to RECIST,[13],Stable Disease
same,Disease response duration,"Patient 036, renal carcinoma",5 months
same,Response to RECIST,"Patient 036, renal carcinoma, 825, then 750 mg/m^2 weekly",Stable Disease
same,Reduction in tumour volume,"Patient 036, renal carcinoma, end of Cycle 4 CT scan",7%
same,Disease response duration,"Patient 037, pancreatic cancer",1 month
same,PFS,"Patient 037, pancreatic cancer",4 months
same,Symptomatic benefit,"Patient 037, pancreatic cancer",Pain in abdomen and back had significantly improved
same,Response to RECIST,"Patient 037, pancreatic cancer, 1,000, then 900 mg/m^2 weekly",Partial Response
